Read-outs that look alike come from different tables or passages of the source.
Experiments:
[1] = target: T1, murine ATGL (Mus musculus, UniProt Q8BJ56); assay: TG hydrolase activity, Expi lysates expressing mouse ATGL + CGI-58, radiolabelled triolein; format: biochemical
T1 construct: made in house; host or cells: Expi cells (lysate)
T1 sequence (Q8BJ56 1-486): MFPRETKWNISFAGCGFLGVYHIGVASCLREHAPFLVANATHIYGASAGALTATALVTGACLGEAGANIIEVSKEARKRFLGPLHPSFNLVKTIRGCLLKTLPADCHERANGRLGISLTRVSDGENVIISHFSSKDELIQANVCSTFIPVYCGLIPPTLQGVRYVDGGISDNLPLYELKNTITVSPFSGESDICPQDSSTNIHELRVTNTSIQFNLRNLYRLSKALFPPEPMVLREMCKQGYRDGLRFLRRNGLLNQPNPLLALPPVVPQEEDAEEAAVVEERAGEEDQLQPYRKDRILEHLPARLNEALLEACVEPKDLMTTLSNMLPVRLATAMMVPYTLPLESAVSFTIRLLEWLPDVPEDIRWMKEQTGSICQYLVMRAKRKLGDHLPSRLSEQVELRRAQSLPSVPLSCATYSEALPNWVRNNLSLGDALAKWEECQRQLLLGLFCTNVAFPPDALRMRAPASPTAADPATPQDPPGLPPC
In short: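 Lysates of Expi cells overexpressing mouse ATGL, with added recombinant CGI-58, were incubated with inhibitor at 50 μM. Substrate was emulsified radiolabelled triolein with PC/PI in 100 mM potassium phosphate pH 7.0 and 5% FA-free BSA, 1 h at 37° C. Released FA were extracted and counted by scintillation; triplicates, DMSO control.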

[2] = Stability in human serum; format: in vitro ADME; conditions: 37° C., HPLC MS
Experimental: Inhibitors were incubated in human serum for 0 or 3 h at 37° C. and subsequently extracted with the MTBE method and analyzed via HPLC MS. Samples measured in triplicates.

[3] = tested on: differentiated hMADS adipocytes; assay: Isoproterenol-stimulated lipolysis in differentiated hMADS adipocytes; format: cell-based; conditions: Homo sapiens, Adipocyte, 2 h pretreatment, 1 μM isoproterenol 1 h
Experimental: Human differentiated hMADS adipocytes were pretreated with DMSO or ATGL inhibitors for 2 h. Subsequently, lipolysis was stimulated with 1 μM Isoproterenol for 1 h and fatty acid release was determined from media via NEFA Reagent (Wako Diagnostics). Samples were measured in triplicates.
Human differentiated hMADS adipocytes were pretreated with DMSO or ATGL inhibitors for 2 h. Subsequently, lipolysis was stimulated with 1 μM Isoproterenol for 1 h and glycerol release was determined from media via Free glycerol reagent (Sigma Aldrich). Samples were measured in triplicates.

[4] = target: T2, human ATGL (Homo sapiens, UniProt Q96AD5); assay: TG hydrolase activity, Expi cell lysates expressing human ATGL + CGI-58, radiolabelled triolein; format: biochemical
T2 construct: made in house; host or cells: Expi cells (lysate, not purified)
T2 sequence (Q96AD5 1-504): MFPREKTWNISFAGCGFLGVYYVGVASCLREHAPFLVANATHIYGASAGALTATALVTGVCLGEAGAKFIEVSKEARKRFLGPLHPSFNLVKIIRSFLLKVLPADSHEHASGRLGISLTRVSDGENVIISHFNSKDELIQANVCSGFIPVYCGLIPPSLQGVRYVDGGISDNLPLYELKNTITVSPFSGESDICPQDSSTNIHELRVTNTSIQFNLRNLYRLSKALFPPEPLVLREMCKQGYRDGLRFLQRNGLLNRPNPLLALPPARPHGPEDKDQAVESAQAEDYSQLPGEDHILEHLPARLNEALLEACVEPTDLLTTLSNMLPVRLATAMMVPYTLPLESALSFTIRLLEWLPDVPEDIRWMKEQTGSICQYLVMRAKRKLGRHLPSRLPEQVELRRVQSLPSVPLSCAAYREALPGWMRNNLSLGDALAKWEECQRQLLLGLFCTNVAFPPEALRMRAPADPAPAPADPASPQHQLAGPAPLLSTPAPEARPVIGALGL
In short: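 Lysates of Expi cells expressing ATGL, supplemented with purified CGI-58 and inhibitor in DMSO, incubated 1 h at 37 °C with emulsified radiolabelled triolein (330 μM) in potassium phosphate pH 7.0 with 5% FA-free BSA. Released FA counted by liquid scintillation after phase extraction; IC50 versus DMSO control, duplicates.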

[5] = target: T2, human ATGL; assay: Ki determination, human ATGL lysates with increasing substrate concentrations; format: biochemical; conditions: non-linear regression
Experimental: For determination of Ki values, lysates from Expi cells overexpressing human ATGL were incubated with recombinant purified ATGL co-activator CGI-58 and ATGL inhibitors at a single concentration dependent on the previously determined IC50. Increasing concentrations of substrate containing radiolabeled triolein were added and liberated FA were extracted and quantified by liquid scintillation. Inhibitors were dissolved in DMSO which was used as control. Ki was determined via non-linear regression analysis. Samples were measured in triplicates.

[6] = tested on: differentiated SGBS adipocytes; assay: Isoproterenol-stimulated lipolysis in differentiated SGBS adipocytes; format: cell-based; conditions: Homo sapiens, 2 h pretreatment, 1 μM isoproterenol 1 h
Experimental: Human differentiated SGBS adipocytes were pretreated with DMSO or ATGL inhibitors for 2 h. Subsequently, lipolysis was stimulated with 1 μM Isoproterenol for 1 h and fatty acid release was determined from media via NEFA Reagent (Wako Diagnostics). Samples were measured in triplicates.
Human differentiated SGBS adipocytes were pretreated with DMSO or ATGL inhibitors for 2 h. Subsequently, lipolysis was stimulated with 1 μM Isoproterenol for 1 h and glycerol release was determined from media via Free glycerol reagent (Sigma Aldrich). Samples were measured in triplicates.

[7] = tested on: HepG2 cells; assay: Toxicity screening (LDH) in HepG2 cells; format: cell-based, human; conditions: 24 h treatment, LDH release
Experimental: HepG2 cells were seeded in 96 well plates and at 50% confluency treated with DMSO (0.5% final conc.) or ATGL Inhibitors for 24 h in DMEM+P/S+3% heat inactivated FCS (3 h at 62° C.). Subsequently, LDH activity of 50 μl medium was determined via the Roche LDH Kit. Samples measured in triplicates.

[8] = 50 μM compound, Example 237, read-out: Inhibition of murine ATGL at 50 μM − mean [%]
[9] = fatty acid release, read-out: IC50 hMADS FA release
[10] = Example 237, read-out: Inhibition of human ATGL − IC50
[11] = glycerol release, read-out: IC50 hMADS glycerol release

| Structure (SMILES) | inhibition at 50 µM [1, 8] [%] | Stability in human serum [% rest after 3 h incubation] [2] [%] | IC50 [3, 9] [nM] | IC50 [4, 10] [nM] | Ki [5] [nM] | melting point [°C] | IC50 [3, 11] [nM] | inhibition at 50 µM ([1]; 50 μM, overview table, read-out: mouse ATGL inhibition [% inhibition at 50 μM]) [%] | IC50 ([4]; values of text and figure legend, read-out: IC50 on human ATGL (hATGL)) [nM] | IC50 ([6]; fatty acid release, read-out: IC50 SGBS FA release) [nM] | IC50 ([6]; glycerol release, read-out: IC50 SGBS glycerol release) [nM] | Tox HepG2 (LDH) seen from [7] [µM] |
| --- | --- | --- | --- | --- | --- | --- | --- | --- | --- | --- | --- | --- |
| CCCc1ccc(-c2cccc(C(=O)OC(C)C)n2)cc1 [Example 43] | 9.8 | 80 | 3000 | 2000 | 470 | 104 to 107 | – | – | – | – | – | – |
| CCCCCCCOc1ccc(-c2cccc(C(=O)OC(C)C)n2)cc1 [Example 86] | 0 | 80 | 1000 | 1500 | 470 | 64 to 66 | – | – | – | – | – | – |
| CCCCCCc1ccc(-c2cccc(C(=O)OC(C)C)n2)cc1 [Example 68] | 0 | 80 | 1000 | 1500 | 270 | 34 to 35 | – | – | – | – | – | – |
| CCCc1ccc(-c2cc(OC)cc(C(=O)OC(C)C)n2)cc1 [Example 53] | 0 | 80 | – | 1500 | 550 | – | 80000 | – | – | – | – | – |
| C#CC(C)OC(=O)c1csc(-c2ccc(OCC)cc2)n1 (centres unmarked) [Example 157, But-3-yn-2-yl 2-(4-ethoxyphenyl)thiazole-4-carboxylate] | – | – | 2500 | 900 | 210 | – | 5000 | – | – | – | – | – |
| CCCCCCOc1ccc(-c2cccc(C(=O)OC(C)C)n2)cc1 [Example 69] | – | 80 | – | 1000 | 830 | 68 to 70 | 80000 | – | – | – | – | – |
| CCOC(=O)c1csc(-c2ccc(OCC)cc2)n1 [Example 101, Ethyl 2-(4-ethoxyphenyl)thiazole-4-carboxylate] | 23.6 | 25 | – | – | 2500 | – | – | 30 | 2500 | 3000 | 3000 | – |
| COCc1ccc(-c2cc(OC)cc(C(=O)OC(C)C)n2)cc1 [Example 61] | – | 75 | 2000 | 1000 | 420 | – | – | – | – | – | – | 50 |
